How the values were obtained:
Test in all cases: β-arrestin GPCR screen (PathHunter/GPCRmax), antagonist mode
[1] = molecular target: 168 GPCRs (Homo sapiens, UniProt Q99705); settings: GPCR MCHR1; Antagonist mode; 10 uM
[2] = molecular target: 168 GPCRs (Homo sapiens, UniProt P21918); settings: DRD5; Antagonist; 1 uM
[3] = molecular target: 168 GPCRs (Homo sapiens, UniProt O95838); settings: GLP2R; Antagonist; 1 uM
[4] = molecular target: 168 GPCRs (Homo sapiens, UniProt P08172); settings: CHRM2; Antagonist; 1 uM
[5] = molecular target: 168 GPCRs (Homo sapiens, UniProt P25090); settings: GPCR FPRL1; Antagonist mode; 10 uM
[6] = molecular target: 168 GPCRs (Homo sapiens, UniProt P41586); settings: ADCYAP1R1; Antagonist; 1 uM
[7] = molecular target: 168 GPCRs (Homo sapiens, UniProt Q9HBW0); settings: EDG4; Antagonist; 1 uM
[8] = molecular target: 168 GPCRs (Homo sapiens, UniProt Q9NSD7); settings: GPCR RXFP3; Antagonist mode; 10 uM
[9] = molecular target: 168 GPCRs (Homo sapiens, UniProt P32249); settings: GPCR EBI2; Antagonist mode; 10 uM
[10] = molecular target: 168 GPCRs (Homo sapiens, UniProt Q8TCW9); settings: PROKR1; Antagonist; 1 uM
[11] = molecular target: 168 GPCRs (Homo sapiens, UniProt Q8NFJ6); settings: GPCR PROKR2; Antagonist mode; 10 uM
[12] = molecular target: 168 GPCRs (Homo sapiens, UniProt P47211); settings: GPCR GALR1; Antagonist mode; 10 uM
[13] = molecular target: 168 GPCRs (Homo sapiens, UniProt P50391); settings: PPYR1; Antagonist; 1 uM
[14] = molecular target: 168 GPCRs (Homo sapiens, UniProt P30988); settings: CALCR-RAMP3, Antagonist
[15] = molecular target: 168 GPCRs (Homo sapiens, UniProt P41587); settings: GPCR VIPR2; Antagonist mode; 10 uM
[16] = molecular target: 168 GPCRs (Homo sapiens, UniProt Q15077); settings: P2RY6; Antagonist; 1 uM
[17] = molecular target: 168 GPCRs (Homo sapiens, UniProt Q9UBY5); settings: EDG7; Antagonist; 1 uM
[18] = molecular target: 168 GPCRs (Homo sapiens, UniProt P41231); settings: GPCR P2RY2; Antagonist mode; 10 uM
[19] = molecular target: 168 GPCRs (Homo sapiens, UniProt Q969F8); settings: KISS1R; Antagonist; 1 uM
[20] = molecular target: 168 GPCRs (Homo sapiens, UniProt P48039); settings: GPCR MTNR1A; Antagonist mode; 10 uM
[21] = molecular target: 168 GPCRs (Homo sapiens, UniProt Q01726); settings: GPCR MC1R; Antagonist mode; 10 uM
[22] = molecular target: 168 GPCRs (Homo sapiens, UniProt Q8TDS5); settings: GPCR OXER1; Antagonist mode; 10 uM
[23] = molecular target: 168 GPCRs (Homo sapiens, UniProt P43115)
[24] = molecular target: 168 GPCRs (Homo sapiens, UniProt P35367); settings: GPCR HRH1; Antagonist mode; 10 uM
[25] = molecular target: 168 GPCRs (Homo sapiens, UniProt P29371); settings: GPCR TACR3; Antagonist mode; 10 uM
Sequence of 168 GPCRs (Homo sapiens, UniProt P29371) (P29371 whole entry): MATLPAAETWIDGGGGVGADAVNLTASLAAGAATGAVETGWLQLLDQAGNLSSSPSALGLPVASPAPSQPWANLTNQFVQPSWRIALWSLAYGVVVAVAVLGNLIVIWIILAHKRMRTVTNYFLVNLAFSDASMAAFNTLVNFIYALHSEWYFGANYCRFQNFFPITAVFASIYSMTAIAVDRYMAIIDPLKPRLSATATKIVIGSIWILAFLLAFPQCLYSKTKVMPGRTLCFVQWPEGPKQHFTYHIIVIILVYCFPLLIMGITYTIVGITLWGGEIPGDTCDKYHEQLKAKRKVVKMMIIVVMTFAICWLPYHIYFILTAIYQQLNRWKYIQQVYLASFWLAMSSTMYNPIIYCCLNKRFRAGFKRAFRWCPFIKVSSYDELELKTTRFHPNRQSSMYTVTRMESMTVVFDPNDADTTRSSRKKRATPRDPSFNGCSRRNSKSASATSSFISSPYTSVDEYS

Sequence of 168 GPCRs (Homo sapiens, UniProt P43115) (P43115 whole entry): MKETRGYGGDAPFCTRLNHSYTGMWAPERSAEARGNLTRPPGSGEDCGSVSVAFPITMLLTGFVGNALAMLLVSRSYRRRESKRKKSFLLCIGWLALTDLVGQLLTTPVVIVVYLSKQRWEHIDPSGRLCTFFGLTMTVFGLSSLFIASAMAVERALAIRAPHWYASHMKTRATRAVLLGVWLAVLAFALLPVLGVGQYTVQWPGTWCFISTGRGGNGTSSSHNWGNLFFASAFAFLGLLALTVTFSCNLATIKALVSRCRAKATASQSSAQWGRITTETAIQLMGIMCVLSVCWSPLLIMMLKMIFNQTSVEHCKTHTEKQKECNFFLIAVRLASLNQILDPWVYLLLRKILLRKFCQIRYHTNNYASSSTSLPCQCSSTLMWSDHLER
Sequence of 168 GPCRs (Homo sapiens, UniProt P30988) (P30988 25-474): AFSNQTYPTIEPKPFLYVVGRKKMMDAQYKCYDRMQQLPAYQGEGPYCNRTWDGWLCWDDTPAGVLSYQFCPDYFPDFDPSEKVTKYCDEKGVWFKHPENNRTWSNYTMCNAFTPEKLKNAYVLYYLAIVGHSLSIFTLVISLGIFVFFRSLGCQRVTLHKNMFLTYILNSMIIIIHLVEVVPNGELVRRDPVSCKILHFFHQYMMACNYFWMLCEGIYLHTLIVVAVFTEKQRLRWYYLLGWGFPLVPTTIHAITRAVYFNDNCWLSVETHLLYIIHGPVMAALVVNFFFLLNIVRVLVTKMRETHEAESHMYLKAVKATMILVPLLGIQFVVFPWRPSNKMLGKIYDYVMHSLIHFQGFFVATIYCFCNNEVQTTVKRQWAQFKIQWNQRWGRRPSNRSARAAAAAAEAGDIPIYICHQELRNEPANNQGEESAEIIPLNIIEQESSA
Sequence of 168 GPCRs (Homo sapiens, UniProt Q99705) (Q99705 whole entry): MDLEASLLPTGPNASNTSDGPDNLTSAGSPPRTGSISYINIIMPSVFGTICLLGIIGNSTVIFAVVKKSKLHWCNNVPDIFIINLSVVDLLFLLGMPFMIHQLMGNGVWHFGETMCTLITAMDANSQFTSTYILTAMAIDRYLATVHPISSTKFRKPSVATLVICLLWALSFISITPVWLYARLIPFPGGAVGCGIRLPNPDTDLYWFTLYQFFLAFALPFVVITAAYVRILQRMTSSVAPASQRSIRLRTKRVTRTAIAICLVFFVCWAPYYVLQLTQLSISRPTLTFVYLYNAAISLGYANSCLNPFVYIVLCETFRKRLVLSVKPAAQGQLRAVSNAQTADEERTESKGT
Sequence of 168 GPCRs (Homo sapiens, UniProt Q8TDS5) (Q8TDS5 whole entry): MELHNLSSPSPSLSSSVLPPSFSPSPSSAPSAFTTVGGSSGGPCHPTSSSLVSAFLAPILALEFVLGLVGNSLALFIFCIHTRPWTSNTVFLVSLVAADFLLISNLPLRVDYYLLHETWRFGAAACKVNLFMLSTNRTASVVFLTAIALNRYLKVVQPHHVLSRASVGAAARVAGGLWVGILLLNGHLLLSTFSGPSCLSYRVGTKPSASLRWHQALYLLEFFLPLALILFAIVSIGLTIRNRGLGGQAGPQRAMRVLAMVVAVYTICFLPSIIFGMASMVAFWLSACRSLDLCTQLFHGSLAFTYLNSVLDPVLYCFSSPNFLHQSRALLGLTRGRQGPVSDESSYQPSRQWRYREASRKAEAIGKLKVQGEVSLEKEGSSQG
Sequence of 168 GPCRs (Homo sapiens, UniProt P41586) (P41586 21-468): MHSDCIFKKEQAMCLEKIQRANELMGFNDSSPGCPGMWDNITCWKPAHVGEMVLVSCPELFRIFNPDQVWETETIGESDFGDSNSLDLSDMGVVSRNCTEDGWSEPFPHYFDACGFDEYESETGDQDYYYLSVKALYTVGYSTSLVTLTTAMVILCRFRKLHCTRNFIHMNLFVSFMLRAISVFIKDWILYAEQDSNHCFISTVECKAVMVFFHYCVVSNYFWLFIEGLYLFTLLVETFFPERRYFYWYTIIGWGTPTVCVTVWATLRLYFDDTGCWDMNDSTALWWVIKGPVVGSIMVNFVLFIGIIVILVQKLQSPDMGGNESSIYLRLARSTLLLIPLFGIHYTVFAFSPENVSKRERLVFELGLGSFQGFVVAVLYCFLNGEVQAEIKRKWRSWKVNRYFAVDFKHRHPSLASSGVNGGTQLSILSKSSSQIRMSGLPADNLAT
Sequence of 168 GPCRs (Homo sapiens, UniProt P48039) (P48039 whole entry): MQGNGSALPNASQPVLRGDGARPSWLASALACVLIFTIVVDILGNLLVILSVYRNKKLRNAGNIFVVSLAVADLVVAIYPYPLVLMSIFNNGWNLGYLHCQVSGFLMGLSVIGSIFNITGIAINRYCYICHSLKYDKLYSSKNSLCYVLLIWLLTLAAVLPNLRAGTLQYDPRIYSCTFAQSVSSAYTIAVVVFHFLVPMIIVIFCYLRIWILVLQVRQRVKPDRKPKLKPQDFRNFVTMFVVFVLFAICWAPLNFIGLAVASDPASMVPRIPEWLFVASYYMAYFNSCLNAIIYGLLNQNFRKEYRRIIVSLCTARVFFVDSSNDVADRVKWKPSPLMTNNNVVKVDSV
Sequence of 168 GPCRs (Homo sapiens, UniProt P35367) (P35367 whole entry): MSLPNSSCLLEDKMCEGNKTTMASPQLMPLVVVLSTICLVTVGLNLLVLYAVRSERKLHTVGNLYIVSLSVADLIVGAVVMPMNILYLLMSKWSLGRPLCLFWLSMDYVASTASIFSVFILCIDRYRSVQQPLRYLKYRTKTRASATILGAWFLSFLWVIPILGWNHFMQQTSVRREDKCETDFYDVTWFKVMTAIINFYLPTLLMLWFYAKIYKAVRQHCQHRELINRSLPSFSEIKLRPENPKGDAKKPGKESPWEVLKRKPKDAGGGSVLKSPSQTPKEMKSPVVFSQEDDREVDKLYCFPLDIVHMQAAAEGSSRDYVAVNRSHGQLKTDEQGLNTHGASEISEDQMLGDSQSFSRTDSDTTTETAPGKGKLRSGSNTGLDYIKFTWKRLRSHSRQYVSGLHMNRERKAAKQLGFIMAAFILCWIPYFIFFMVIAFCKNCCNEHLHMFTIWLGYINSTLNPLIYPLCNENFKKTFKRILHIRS
Sequence of 168 GPCRs (Homo sapiens, UniProt Q969F8) (Q969F8 whole entry): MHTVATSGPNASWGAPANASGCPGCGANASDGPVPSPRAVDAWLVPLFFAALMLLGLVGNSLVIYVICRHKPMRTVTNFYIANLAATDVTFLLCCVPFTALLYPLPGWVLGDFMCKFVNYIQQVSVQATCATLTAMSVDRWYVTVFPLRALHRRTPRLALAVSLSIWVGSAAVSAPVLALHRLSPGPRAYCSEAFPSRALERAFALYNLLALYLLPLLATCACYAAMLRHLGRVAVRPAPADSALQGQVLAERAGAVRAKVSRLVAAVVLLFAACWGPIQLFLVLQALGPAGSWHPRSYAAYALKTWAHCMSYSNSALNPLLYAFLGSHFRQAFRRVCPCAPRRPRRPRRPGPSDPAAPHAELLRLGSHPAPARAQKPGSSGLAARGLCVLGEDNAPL
Sequence of 168 GPCRs (Homo sapiens, UniProt P08172) (P08172 whole entry): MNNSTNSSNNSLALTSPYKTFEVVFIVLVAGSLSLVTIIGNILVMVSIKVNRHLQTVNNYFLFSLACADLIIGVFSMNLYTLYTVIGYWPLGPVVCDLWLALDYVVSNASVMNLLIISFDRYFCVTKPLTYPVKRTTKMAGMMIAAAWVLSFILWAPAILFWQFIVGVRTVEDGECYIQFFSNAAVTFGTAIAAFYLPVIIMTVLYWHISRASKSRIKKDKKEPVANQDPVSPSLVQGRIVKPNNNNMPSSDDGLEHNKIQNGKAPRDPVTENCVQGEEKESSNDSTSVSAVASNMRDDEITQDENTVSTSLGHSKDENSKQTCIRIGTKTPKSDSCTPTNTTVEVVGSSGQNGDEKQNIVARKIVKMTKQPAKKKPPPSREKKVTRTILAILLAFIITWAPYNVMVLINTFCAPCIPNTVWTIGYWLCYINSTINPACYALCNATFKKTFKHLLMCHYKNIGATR
Sequence of 168 GPCRs (Homo sapiens, UniProt Q9NSD7) (Q9NSD7 whole entry): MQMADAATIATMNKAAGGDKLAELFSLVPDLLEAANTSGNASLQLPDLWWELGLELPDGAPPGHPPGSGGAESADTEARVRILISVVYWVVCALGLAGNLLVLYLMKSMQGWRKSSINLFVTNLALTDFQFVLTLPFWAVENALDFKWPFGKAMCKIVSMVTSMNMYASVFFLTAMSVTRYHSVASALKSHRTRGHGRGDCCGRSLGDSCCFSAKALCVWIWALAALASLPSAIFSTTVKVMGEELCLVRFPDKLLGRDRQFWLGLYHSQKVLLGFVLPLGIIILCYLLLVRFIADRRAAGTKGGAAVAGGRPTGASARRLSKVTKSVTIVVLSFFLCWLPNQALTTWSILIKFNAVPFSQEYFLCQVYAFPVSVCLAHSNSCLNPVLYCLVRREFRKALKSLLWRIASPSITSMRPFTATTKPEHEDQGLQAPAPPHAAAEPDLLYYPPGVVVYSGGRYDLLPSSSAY

SMILES: CNC(C)C(=O)c1ccc2c(c1)OCO2 (stereo not drawn) [methylone, 3,4-methylenedioxy-N-methylcathinone]
- activity at 10 µM [1]: -38.3%
- activity at 1 µM [2]: -6.9%
- activity at 1 µM [3]: 6.4%
- activity at 1 µM [4]: -18.9%
- activity at 10 µM [5]: ~3%
- activity at 1 µM [6]: ~13%
- activity at 1 µM [7]: ~-10%
- activity at 10 µM [8]: ~32%
- activity at 10 µM [9]: -2.6%
- activity at 1 µM [10]: 6.7%
- activity at 10 µM [11]: -6.8%
- activity at 10 µM [12]: 8.8%
- activity at 1 µM [13]: ~9%
- activity at 1 µM ([14]; 1 uM): ~-8%
- activity at 10 µM ([14]; 10 uM): -3.3%
- activity at 10 µM [15]: ~-2%
- activity at 1 µM [16]: ~8%
- activity at 1 µM [17]: ~19%
- activity at 10 µM [18]: ~1%
- activity at 1 µM [19]: 25.7%
- activity at 10 µM [20]: ~7%
- activity at 10 µM [21]: ~15%
- activity at 10 µM [22]: ~7%
- activity at 10 µM ([23]; GPCR PTGER3, Antagonist mode, 10 uM): -5.7%
- activity at 1 µM ([23]; PTGER3, Antagonist, 1 uM): 8.2%
- activity at 10 µM [24]: -2.2%
- activity at 10 µM [25]: ~-14%

— patent publication US20250332139A1, “PS[…] AND THEIR USE FOR TREATING […] AND NE[…] DISORDERS” (Transcend Therapeutics, Inc., priority 2021, published 2025)
